Reference: US20200123147A1, “THIAZOLE COMPOUNDS USEFUL AS PRMT5 INHIBITORS” (Bayer Aktiengesellschaft, priority 2017, published 2020)

Legend:
[1] = target: T1, PRMT5:MEP50 protein complex (Homo sapiens, UniProt O14744); experiment: In vitro assay 1: PRMT5 SPA assay ("EAA"); assay type: biochemical; conditions: scintillation proximity assay, methylation of biotinylated H4(1-24) peptide, 3H-SAM, 60 min at 22° C.
T1 construct: FLAG (N); made in house; host or cells: Hi5 insect cells
Source text: In Vitro Assay 1: PRMT5 SPA Assay (“EAA”)
PRMT5 inhibitory activities of the compounds described in the present invention were quantified using a scintillation proximity assay (SPA) which measures methylation by the enzyme of a synthetic, biotinylated peptide corresponding to the N-terminal sequence of Histone H4 (a.a. 1-24). The peptide of sequence […]-K(Btn)-amide is commercially available (e.g. from Biosyntan) and will be herein referred to as H4(1-24). The PRMT5:MEP50 protein complex used in the assay was produced in house following standard protocols. Briefly, full length PRMT5 and MEP50 constructs respectively tagged with N-terminal FLAG and 6× His sequences were co-expressed in Hi5 insect cells, and the recombinant protein complex was purified by FLAG affinity and size exclusion chromatography.
In a typical assay 11 different concentrations of each compound (0.1 nM, 0.33 nM, 1.1 nM, 3.8 nM, 13 nM, 44 nM, 0.15 μM, 0.51 μM, 1.7 μM, 5.9 μM and 20 μM) were tested in duplicate within the same microtiter plate. To this end, 100-fold concentrated compound solutions (in DMSO) were previously prepared by serial dilution (1:3.4) of 2 mM stocks in a clear low volume 384-well source microtiter plate (Greiner Bio-One), from which 50 nl of compounds were transferred into a white low volume test microtiter plate from the same supplier. Subsequently, 2.5 μL PRMT5 in aqueous assay buffer [20 mM Bicine pH 8.0 (Alfa Aesar), 7.5 mM Tris(2-carboxyethyl) phosphine hydrochloride (TCEP, Sigma), 0.1% (w/v) bovine gamma globuline (BGG, Sigma), 0.002% (v/v) Tween-20 (Sigma)] were added to the compounds in the test plate to a final enzyme concentration of—typically—7.5 nM (this parameter was adjusted depending on the activity of the enzyme lot in order to be within the linear dynamic range of the assay). The samples were then incubated for 15 min at 22° C. to allow pre-equilibration of the putative enzyme-inhibitor complexes before the start of the methylation reaction, which was initiated by the addition of 2.5 μL 2-fold concentrated solution (in assay buffer) of “cold” S-Adenosyl-L-Methionine (SAM, Sigma, final concentration: 0.5 μM), tritiated 3H-SAM (Perkin Elmer, final concentration: 0.5 μM) and H4(1-24) peptide substrate (final concentration: 0.06 μM). The resulting mixture (5 μL final volume) was shortly centrifuged (2 min., 1500 rpm) and incubated at 22° C. during 60 min. Thereupon the reaction was stopped by adding 3 μL of Streptavidin PS SPA imaging beads (Perkin Elmer, final concentration of 0.375 μg/μL) and “cold” SAM (AK Scientific, 250 μM final concentration) for non-specific binding reduction. Plates containing the stopped reaction were sealed with transparent adhesive foil (Perkin Elmer), centrifuged (2 min., 1500 rpm), and further incubated either 1 h at 22° C. or overnight at 4° C. in order to allow the SPA signals to develop. Subsequently, the amount of product was evaluated by measuring the energy transfer from the β-particles emitted by the 3H-labeled substrate to the Europium scintillator co-polymerized in the polystyrene matrix of the PS imaging beads, using the standard settings for this purpose of a Viewlux (Perkin-Elmer) CCD plate imaging device (emission filter 613/55 (IFP).
The resulting scintillation counts were taken as indicator for the amount of methylated peptide per well. The data were normalised using two sets of control wells (typically 16 each) for high—(=enzyme reaction with DMSO instead of test compound=0%=minimum inhibition) and low—(=all assay components without enzyme=100%=maximum inhibition) PRMT5 activity. IC50 values were calculated by fitting the normalized inhibition data to a 4-parameter logistic equation using the “Screener” analysis software from Genedata.

[2] = tested on: PRMT5 (histone H4 Arg3 SDMA levels in MDA-MB-468 cells); experiment: In vitro assay 2: quantification of SDMA (symmetric dimethylarginine) expression levels (H4 Arg3) in cancer cells, High-Content Analysis; assay type: cell-based; conditions: Homo sapiens, 72 h, SDMA histone H4 (Arg3) average signal intensity per cell
Source text: In Vitro Assay 2: Quantification of SDMA (Symmetric Dimethylarginine) Expression Levels (H4 Arg3) After Small Molecule Treatment of Cancer Cells
The SDMA-assay based on High-Content Analysis (HCA) enables the biological characterization of compounds inhibiting PRMT5. By this assay, substances are benchmarked on their cellular activity to modulate histone H4 Arg3 levels over broad inhibitor concentration ranges.
Cultivated cells of the human mammary gland tumor cell line MDA-MB-468 (ATCC HTB-132) were plated at a density of 2500 cells per well in a 384-well microtiter plate in 20 μL of Roswell Park Memorial Institute (RPMI) 1640 medium supplemented with 1% (v/v) glutamine, 1% (v/v) penicillin, 1% (v/v) streptomycin and 10% (v/v) fetal calf serum. After pre-incubation at 37° C. overnight, test compo unds solubilized in DMSO were added at various concentrations (0 μM, as well as in the range of 0.005 μM-30 μM; the final concentration of the solvent DMSO was 0.5% (v/v)). Cells were incubated at 37° C. for 72 h in the presence of test compounds. Thereafter, cells were fixed with 4% (v/v) paraformaldehyde in phosphate buffered saline (PBS) at room temperature for 1 h, permeabilized using 0.5% (v/v) Triton X™ 100 in PBS for 15 min and blocked with 1% (v/v) bovine serum albumin (BSA) in PBS for 30 min. In the following, cells were incubated with anti-dimethyl-histone H4 (Arg3) symmetric antibody (Millipore #07-947) at RT for 2 h. After a single washing step with blocking solution, cells were incubated with species-specific fluorescent conjugated secondary antibody Alexa Fluor™ 488 (Jackson Immuno Research #111-546-003) at RT for 2 h.
Image acquisition for cells was carried out using the confocal imaging system OPERA® (PerkinElmer). Images were captured using two channels: Hoechst 33342 stain (DNA) and Alexa Fluor™ 488 (SDMA staining); and were analyzed using the MetaXpress® software (Molecular Devices). Exposure times were chosen for individual experiments to prevent saturation and allow for quantification in the linear range. A minimum of 500 cells in 5 field views were analyzed per well using 10× water immersion objective with a two-fold binning.
The image analysis routine was developed in MetaXpress®. The standardized image-analysis module “Count Nuclei” and the images of the DNA-channel were used for nuclei segmentation. The segmented nuclei were filtered for size, shape and signal intensity to exclude possible apoptotic and non-viable cells along with metaphase nuclei. These phenotypes result in overestimated antibody signals, due to their strong chromatin compaction. For further processing, binary object masks were calculated from the segmented and positively selected nuclei. The binary masks served as templates to be superimposed over the images of the SDMA channel. The SDMA average signal intensity per cell was quantified for every image set. The assay raw data were further analyzed by four parameter logistic regression analysis using Genedata's Assay Analyzer® and Condoseo® software to determine the IC50 value for each tested compound.

T1 sequence (O14744 whole entry, species assumed): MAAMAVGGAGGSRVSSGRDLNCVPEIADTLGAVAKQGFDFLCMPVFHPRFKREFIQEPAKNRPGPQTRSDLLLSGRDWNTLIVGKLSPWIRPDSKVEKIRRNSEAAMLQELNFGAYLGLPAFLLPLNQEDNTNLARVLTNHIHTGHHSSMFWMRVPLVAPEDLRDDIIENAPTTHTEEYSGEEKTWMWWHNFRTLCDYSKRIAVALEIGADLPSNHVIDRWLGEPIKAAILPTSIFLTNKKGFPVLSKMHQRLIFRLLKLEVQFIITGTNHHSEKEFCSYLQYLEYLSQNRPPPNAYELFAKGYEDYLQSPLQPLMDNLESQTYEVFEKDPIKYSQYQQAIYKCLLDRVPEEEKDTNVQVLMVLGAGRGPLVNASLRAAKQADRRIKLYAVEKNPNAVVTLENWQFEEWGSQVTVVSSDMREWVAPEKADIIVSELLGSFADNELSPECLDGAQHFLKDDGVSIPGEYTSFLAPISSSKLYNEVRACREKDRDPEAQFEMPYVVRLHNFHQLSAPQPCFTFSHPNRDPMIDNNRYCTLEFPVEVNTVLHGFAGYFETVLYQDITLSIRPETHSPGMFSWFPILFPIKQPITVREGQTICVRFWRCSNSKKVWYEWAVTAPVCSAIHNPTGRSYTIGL
T1 sequence (Q9BQA1 whole entry partner, species assumed): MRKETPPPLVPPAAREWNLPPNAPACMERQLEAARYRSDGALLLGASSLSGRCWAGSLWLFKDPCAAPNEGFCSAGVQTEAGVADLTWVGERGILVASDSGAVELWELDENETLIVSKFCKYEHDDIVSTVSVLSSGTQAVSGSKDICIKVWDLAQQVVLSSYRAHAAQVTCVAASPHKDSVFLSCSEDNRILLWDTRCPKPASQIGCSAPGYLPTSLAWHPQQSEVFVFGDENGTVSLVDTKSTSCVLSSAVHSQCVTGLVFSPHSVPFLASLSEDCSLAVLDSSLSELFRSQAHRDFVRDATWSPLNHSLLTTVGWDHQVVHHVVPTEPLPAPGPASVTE

SMILES	IC50 [1] [µM]	IC50 [2] [µM]
CCn1ccc(NC(=O)c2csc(Nc3ccc(Cl)cc3)n2)n1 [Example 15, 2-[(4-Chlorophenyl)amino]-N-(1-ethyl-1H-pyrazol-3-yl)-1,3-thiazole-4-carboxamide]	0.4	≥ 30
O=C(Nc1ccon1)c1csc(Nc2ccc(Cl)cc2)n1 [Example 19, 2-[(4-Chlorophenyl)amino]-N-(1,2-oxazol-3-yl)-1,3-thiazole-4-carboxamide]	0.775	≥ 30
O=C(Nc1nc2ccccc2s1)c1csc(Nc2ccc(Cl)cc2)n1 [Example 8, N-(1,3-Benzothiazol-2-yl)-2-[(4-chlorophenyl)amino]-1,3-thiazole-4-carboxamide]	0.111	≥ 30
CC(C)(C)c1cc(NC(=O)c2csc(Nc3ccc(Cl)cc3)n2)n[nH]1 [Example 12, N-(5-tert-Butyl-1H-pyrazol-3-yl)-2-[(4-chlorophenyl)amino]-1,3-thiazole-4-carboxamide]	0.295	22.1
Cn1ccc(NC(=O)c2csc(Nc3ccccc3)n2)n1 [Example 23, N-(1-Methyl-1H-pyrazol-3-yl)-2-(phenylamino)-1,3-thiazole-4-carboxamide]	1.61	23.2
CC(C)(C)c1cc(NC(=O)c2csc(Nc3ccc(Cl)c(Cl)c3)n2)no1 [Example 21, N-(5-tert-Butyl-1,2-oxazol-3-yl)-2-[(3,4-dichlorophenyl)amino]-1,3-thiazole-4-carboxamide]	1.39	26.7
CC(C)(C)c1cc(NC(=O)c2csc(Nc3ccc(Cl)cc3)n2)no1 [Example 4, N-(5-tert-Butyl-1,2-oxazol-3-yl)-2-[(4-chlorophenyl)amino]-1,3-thiazole-4-carboxamide]	0.104	20.8
O=C(NCCCCN1CCc2ccccc2C1)c1csc(Nc2ccc(Cl)cc2)n1 [Example 17, 2-[(4-Chlorophenyl)amino]-N-[4-(3,4-dihydroisoquinolin-2(1H)-yl)butyl]-1,3-thiazole-4-carboxamide]	0.585	10
CCN(CC)CCOc1cc(NC(=O)c2csc(Nc3ccccc3)n2)ccc1-c1ccc(C)cc1 [Example 22, N-{2-[2-(Diethylamino)ethoxy]-4′-methylbiphenyl-4-yl}-2-(phenylamino)-1,3-thiazole-4-carboxamide]	0.941	23.4
Cc1cccc(Nc2nc(C(=O)Nc3cc(C(C)(C)C)on3)cs2)c1 [Example 43, N-(5-tert-Butyl-1,2-oxazol-3-yl)-2-[(3-methylphenyl)amino]-1,3-thiazole-4-carboxamide]	0.512	–
O=C(Nc1cnn(C2COC2)c1)c1csc(Nc2ccc(Cl)cc2)n1 [Example 31, 2-[(4-Chlorophenyl)amino]-N-[1-(oxetan-3-yl)-1H-pyrazol-4-yl]-1,3-thiazole-4-carboxamide]	15.1	–

More lines, in order of falling IC50 [1], values ahead:

IC50 [1] [µM]	IC50 [2] [µM]	SMILES
15.2	–	CC(C)(C)c1cc(NC(=O)c2csc(Nc3ccc(F)nc3)n2)no1 [Example 53, N-(5-tert-Butyl-1,2-oxazol-3-yl)-2-[(6-fluoropyridin-3-yl)amino]-1,3-thiazole-4-carboxamide]
0.971	≥ 30	Cc1cc(NC(=O)c2csc(Nc3ccc(Cl)cc3)n2)no1 [Example 20, 2-[(4-Chlorophenyl)amino]-N-(5-methyl-1,2-oxazol-3-yl)-1,3-thiazole-4-carboxamide]
0.344	26.1	CC(C)(C)c1cc(NC(=O)c2csc(Nc3ccc([N+](=O)[O-])cc3)n2)no1 [Example 13, N-(5-tert-Butyl-1,2-oxazol-3-yl)-2-[(4-nitrophenyl)amino]-1,3-thiazole-4-carboxamide]
0.303	18.6	O=C(Nc1cc(C2CC2)n[nH]1)c1csc(Nc2ccccc2)n1 [Example 14, N-(3-Cyclopropyl-1H-pyrazol-5-yl)-2-(phenylamino)-1,3-thiazole-4-carboxamide]
0.238	27.9	Cn1nc(NC(=O)c2csc(Nc3ccccc3)n2)cc1C(F)(F)F [Example 10, N-[1-Methyl-5-(trifluoromethyl)-1H-pyrazol-3-yl]-2-(phenylamino)-1,3-thiazole-4-carboxamide]
0.177	25.4	CC(C)(C)c1cc(NC(=O)c2csc(Nc3ccccc3)n2)no1 [Example 3, N-(5-tert-Butyl-1,2-oxazol-3-yl)-2-(phenylamino)-1,3-thiazole-4-carboxamide]
0.149	17.6	CC(C)(C)c1cc(NC(=O)c2csc(Nc3ccc(F)cc3)n2)no1 [Example 7, N-(5-tert-Butyl-1,2-oxazol-3-yl)-2-[(4-fluorophenyl)amino]-1,3-thiazole-4-carboxamide]
0.119	–	CC(C)(C)c1cc(NC(=O)c2csc(NCCc3ccccc3)n2)no1 [Example 37, N-(5-tert-Butyl-1,2-oxazol-3-yl)-2-[(2-phenylethyl)amino]-1,3-thiazole-4-carboxamide]
0.113	≥ 30	O=C(Nc1cc(C2CC2)n[nH]1)c1csc(Nc2ccc(Cl)cc2)n1 [Example 5, 2-[(4-Chlorophenyl)amino]-N-(3-cyclopropyl-1H-pyrazol-5-yl)-1,3-thiazole-4-carboxamide]
0.078	2.45	CC(C)(C)c1cc(NC(=O)c2csc(Nc3ccccn3)n2)no1 [Example 2, N-(5-tert-Butyl-1,2-oxazol-3-yl)-2-(pyridin-2-ylamino)-1,3-thiazole-4-carboxamide]
